System: MV-4-11 cells
Assay: Gene expression microarray analysis (Affymetrix PrimeView) and GSEA
Format: cell-based, human
Parameters: RFU PODN (11730768_x_at) / Fold change /veh PODN (11730768_x_at) / RFU LINC00158 (11744669_a_at) / Fold change /veh LINC00158 (11744669_a_at) / RFU DUSP10 (11751237_a_at) / Fold change /veh DUSP10 (11751237_a_at) / RFU ID3 (11757404_x_at) / Fold change /veh ID3 (11757404_x_at) / RFU PLEKHG5 (11737974_s_at) / Fold change /veh PLEKHG5 (11737974_s_at) / RFU LRRC4B (11730491_at) / Fold change /veh LRRC4B (11730491_at) / RFU GIMAP4 (11747438_a_at) / Fold change /veh GIMAP4 (11747438_a_at) / RFU KRT8 (11758183_x_at) / Fold change /veh KRT8 (11758183_x_at) / RFU CNN1 (11734310_a_at) / Fold change /veh CNN1 (11734310_a_at) / RFU VPS37D (11726825_at) / Fold change /veh VPS37D (11726825_at) / RFU C10orf10 (11716522_x_at) / Fold change /veh C10orf10 (11716522_x_at) / RFU KIR2DL2 /// KIR2DL4 /// KIR2DL5A /// KIR2DL5B /// KIR2DS1 /// KIR2DS2 /// KIR2DS3 /// KIR2DS4 /// KIR3DL3 /// KIR3DL3 /// KIR3DS1 (11738374_at) / Fold change /veh KIR2DL2 /// KIR2DL4 /// KIR2DL5A /// KIR2DL5B /// KIR2DS1 /// KIR2DS2 /// KIR2DS3 /// KIR2DS4 /// KIR3DL3 /// KIR3DL3 /// KIR3DS1 (11738374_at) / RFU C1QL1 (11718748_at) / Fold change /veh C1QL1 (11718748_at) / RFU TMPRSS4 (11747572_a_at) / Fold change /veh TMPRSS4 (11747572_a_at) / RFU HAMP (11756126_x_at) / Fold change /veh HAMP (11756126_x_at) / RFU RNFT2 (11725882_a_at) / Fold change /veh RNFT2 (11725882_a_at) / RFU NR4A2 (11747474_a_at) / Fold change /veh NR4A2 (11747474_a_at) / RFU ABCC12 (11746883_a_at) / Fold change /veh ABCC12 (11746883_a_at) / RFU TMEM136 (11760407_x_at) / Fold change /veh TMEM136 (11760407_x_at) / RFU CLDN22 /// WWC2 (11732394_at) / Fold change /veh CLDN22 /// WWC2 (11732394_at) / RFU HLA-DPB1 (11760878_x_at) / Fold change /veh HLA-DPB1 (11760878_x_at) / RFU SPINT1 (11716480_a_at) / Fold change /veh SPINT1 (11716480_a_at) / RFU GAP43 (11754022_s_at) / Fold change /veh GAP43 (11754022_s_at) / RFU A4GNT (11735810_at) / Fold change /veh A4GNT (11735810_at) / RFU PRB3 (11715151_x_at) / Fold change /veh PRB3 (11715151_x_at) / RFU TUBB4B (11761932_at) / Fold change /veh TUBB4B (11761932_at) / RFU CAPN14 (11732068_a_at) / Fold change /veh CAPN14 (11732068_a_at) / RFU TMCC2 (11721928_a_at) / Fold change /veh TMCC2 (11721928_a_at) / RFU IRGQ (11745062_a_at) / Fold change /veh IRGQ (11745062_a_at) / RFU FAM174B (11720279_a_at) / Fold change /veh FAM174B (11720279_a_at) / RFU TMPRSS4 (11748680_a_at) / Fold change /veh TMPRSS4 (11748680_a_at) / RFU FAM212B (11763350_a_at) / Fold change /veh FAM212B (11763350_a_at) / RFU PLEKHG5 (11743358_a_at) / Fold change /veh PLEKHG5 (11743358_a_at) / RFU ZSCAN30 (11745921_a_at) / Fold change /veh ZSCAN30 (11745921_a_at) / RFU CMKLR1 (11741424_a_at) / Fold change /veh CMKLR1 (11741424_a_at) / RFU LOC101060620 /// MAPK8IP1 (11723275_at) / Fold change /veh LOC101060620 /// MAPK8IP1 (11723275_at) / RFU SPTSSB (11747773_x_at) / Fold change /veh SPTSSB (11747773_x_at) / RFU PRSS12 (11739890_at) / Fold change /veh PRSS12 (11739890_at) / RFU BIN1 (11741810_x_at) / Fold change /veh BIN1 (11741810_x_at) / RFU WNT11 (11732464_a_at) / Fold change /veh WNT11 (11732464_a_at) / RFU C10orf10 (11716521_a_at) / Fold change /veh C10orf10 (11716521_a_at) / RFU C5orf56 (11738089_at) / Fold change /veh C5orf56 (11738089_at) / RFU CYB561 (11721691_x_at) / Fold change /veh CYB561 (11721691_x_at) / RFU ANKRD19P (11752326_a_at) / Fold change /veh ANKRD19P (11752326_a_at) / RFU OR2T12 /// OR2T33 /// OR2T8 (11738714_s_at) / Fold change /veh OR2T12 /// OR2T33 /// OR2T8 (11738714_s_at) / RFU VCAN (11748164_a_at) / Fold change /veh VCAN (11748164_a_at) / RFU JSRP1 (11732532_at) / Fold change /veh JSRP1 (11732532_at) / RFU KRTAP10-11 (11738290_x_at) / Fold change /veh KRTAP10-11 (11738290_x_at) / RFU MYO3A (11730013_a_at) / Fold change /veh MYO3A (11730013_a_at) / RFU EBF3 (11725865_a_at) / Fold change /veh EBF3 (11725865_a_at) / RFU CAMK2N1 (11719241_x_at) / Fold change /veh CAMK2N1 (11719241_x_at) / RFU C5orf56 (11738088_a_at) / Fold change /veh C5orf56 (11738088_a_at) / RFU OLFML3 (11715873_a_at) / Fold change /veh OLFML3 (11715873_a_at) / RFU LOC100653217 /// NTM (11731650_a_at) / Fold change /veh LOC100653217 /// NTM (11731650_a_at) / RFU MAPK11 (11762145_a_at) / Fold change /veh MAPK11 (11762145_a_at) / RFU FIZ1 (11724087_x_at) / Fold change /veh FIZ1 (11724087_x_at) / RFU OASL (11726364_x_at) / Fold change /veh OASL (11726364_x_at) / RFU SOX15 (11748057_x_at) / Fold change /veh SOX15 (11748057_x_at) / RFU CD79A (11719716_a_at) / Fold change /veh CD79A (11719716_a_at) / RFU HIST1H1D (11736915_at) / Fold change /veh HIST1H1D (11736915_at) / RFU CASKIN2 (11723855_a_at) / Fold change /veh CASKIN2 (11723855_a_at) / RFU LOC730098 (11760151_x_at) / Fold change /veh LOC730098 (11760151_x_at) / RFU OR4N2 (11742367_at) / Fold change /veh OR4N2 (11742367_at) / RFU PRRT2 (11749266_a_at) / Fold change /veh PRRT2 (11749266_a_at) / RFU SNX32 (11753110_a_at) / Fold change /veh SNX32 (11753110_a_at) / RFU CDHR5 (11726645_a_at) / Fold change /veh CDHR5 (11726645_a_at) / RFU RCAN1 (11760418_a_at) / Fold change /veh RCAN1 (11760418_a_at) / RFU FAM167A (11723789_a_at) / Fold change /veh FAM167A (11723789_a_at) / RFU FAM26E (11764081_at) / Fold change /veh FAM26E (11764081_at) / RFU ISYNA1 (11749810_s_at) / Fold change /veh ISYNA1 (11749810_s_at) / RFU ACY1 (11761880_at) / Fold change /veh ACY1 (11761880_at) / RFU 11764098_at / Fold change /veh 11764098_at / RFU SAMD14 (11745864_x_at) / Fold change /veh SAMD14 (11745864_x_at) / RFU NPB (11741838_a_at) / Fold change /veh NPB (11741838_a_at) / RFU TMPRSS6 (11731388_a_at) / Fold change /veh TMPRSS6 (11731388_a_at) / RFU KRTAP10-2 (11738614_at) / Fold change /veh KRTAP10-2 (11738614_at) / RFU ARHGAP8 /// PRR5-ARHGAP8 (11727945_x_at) / Fold change /veh ARHGAP8 /// PRR5-ARHGAP8 (11727945_x_at) / RFU KRTAP5-7 /// NADSYN1 (11734609_at) / Fold change /veh KRTAP5-7 /// NADSYN1 (11734609_at) / RFU RASL12 (11751679_a_at) / Fold change /veh RASL12 (11751679_a_at) / RFU CDKN2B (11736163_a_at) / Fold change /veh CDKN2B (11736163_a_at) / RFU PRF1 (11729649_at) / Fold change /veh PRF1 (11729649_at) / RFU, ZNF638 /// ZNF638-IT1 / Fold change vs veh, ZNF638 /// ZNF638-IT1 / RFU, PANK3 / Fold change vs veh, PANK3 / RFU, SH3YL1 / Fold change vs veh, SH3YL1 / RFU, ZEB2 / Fold change vs veh, ZEB2 / RFU, NRIP1 / Fold change vs veh, NRIP1 / RFU, PTTG1IP / Fold change vs veh, PTTG1IP / RFU, CAPN2 / Fold change vs veh, CAPN2 / RFU, MED14 / Fold change vs veh, MED14 / RFU, SNORA58 / Fold change vs veh, SNORA58 / RFU, C1orf63 / Fold change vs veh, C1orf63 / RFU, LRRFIP1 / Fold change vs veh, LRRFIP1 / RFU, NDUFAF7 / Fold change vs veh, NDUFAF7 / RFU, SLC12A2 / Fold change vs veh, SLC12A2 / RFU, IBTK / Fold change vs veh, IBTK / RFU, ESF1 / Fold change vs veh, ESF1 / Fold change vs veh, TMEM50B / RFU, TAOK1 / Fold change vs veh, TAOK1 / RFU, ACBD3 / Fold change vs veh, ACBD3 / RFU, TMA16 / Fold change vs veh, TMA16 / RFU, RWDD3 / Fold change vs veh, RWDD3 / RFU, BCAT1 / Fold change vs veh, BCAT1 / RFU, EDEM3 / Fold change vs veh, EDEM3 / RFU, TMEM33 / Fold change vs veh, TMEM33 / RFU, WDR75 / Fold change vs veh, WDR75 / RFU, AHCTF1 / Fold change vs veh, AHCTF1 / RFU, TFRC / Fold change vs veh, TFRC / RFU, ZDHHC17 / Fold change vs veh, ZDHHC17 / RFU, NOM1 / Fold change vs veh, NOM1 / RFU, ARL8B / Fold change vs veh, ARL8B / RFU, ZBTB11 / Fold change vs veh, ZBTB11 / RFU, TAMM41 / Fold change vs veh, TAMM41 / RFU, KIAA1704 /// LOC100996395 / Fold change vs veh, KIAA1704 /// LOC100996395 / RFU, ING1 / Fold change vs veh, ING1 / RFU, TRMT61B / Fold change vs veh, TRMT61B / RFU, FUBP3 / Fold change vs veh, FUBP3 / RFU, TP53 / Fold change vs veh, TP53 / RFU, TNKS2 / Fold change vs veh, TNKS2 / RFU, ZFP14 / Fold change vs veh, ZFP14 / RFU, ACTR2 / Fold change vs veh, ACTR2 / RFU, PPP3R1 / Fold change vs veh, PPP3R1 / RFU, PIK3R1 / Fold change vs veh, PIK3R1 / RFU, HNRNPA1 / Fold change vs veh, HNRNPA1 / RFU, RNF170 / Fold change vs veh, RNF170 / RFU, ZNF28 / Fold change vs veh, ZNF28 / RFU, RNGTT / Fold change vs veh, RNGTT / RFU, OGT / Fold change vs veh, OGT / RFU, BRD1 / Fold change vs veh, BRD1 / RFU, MARS / Fold change vs veh, MARS / RFU, ZNF655 / Fold change vs veh, ZNF655 / RFU, FAHD1 / Fold change vs veh, FAHD1 / RFU, BDP1 / Fold change vs veh, BDP1 / RFU, LRRCC1 / Fold change vs veh, LRRCC1 / RFU, ARID1A / Fold change vs veh, ARID1A / RFU, ZNF146 / Fold change vs veh, ZNF146 / RFU, ZNF330 / Fold change vs veh, ZNF330 / RFU, GPN3 / Fold change vs veh, GPN3 / RFU, C9orf123 / Fold change vs veh, C9orf123 / RFU, N4BP2L2 / Fold change vs veh, N4BP2L2 / RFU, ARFIP1 / Fold change vs veh, ARFIP1 / RFU, FAM179B / Fold change vs veh, FAM179B / RFU, BCL10 / Fold change vs veh, BCL10 / RFU, UHRF1BP1L / Fold change vs veh, UHRF1BP1L / RFU, BET1 / Fold change vs veh, BET1 / RFU, CNOT2 / Fold change vs veh, CNOT2 / RFU, ZNF268 / Fold change vs veh, ZNF268 / Fold change vs veh, ZNF507 / RFU, DGCR2 / Fold change vs veh, DGCR2 / RFU, WDSUB1 / Fold change vs veh, WDSUB1 / Fold change vs veh, HSP90B1 /// MIR3652 / RFU, ADSS / Fold change vs veh, ADSS / RFU, GK / Fold change vs veh, GK / RFU, ZNF148 / Fold change vs veh, ZNF148 / RFU, TAF9 / Fold change vs veh, TAF9 / RFU, SLC1A5 / Fold change vs veh, SLC1A5 / RFU, SLMO2 / Fold change vs veh, SLMO2 / RFU, ABCC4 / Fold change vs veh, ABCC4 / RFU, LOC101060439 /// RAP1B / Fold change vs veh, LOC101060439 /// RAP1B / RFU, RFX7 / Fold change vs veh, RFX7 / RFU, GTPBP10 / Fold change vs veh, GTPBP10 / RFU, CNEP1R1 / Fold change vs veh, CNEP1R1 / RFU, BIVM-ERCC5 /// ERCC5 / Fold change vs veh, BIVM-ERCC5 /// ERCC5 / RFU, ILF3 / Fold change vs veh, ILF3 / RFU 11762660_at / Fold change /veh 11762660_at / RFU VCAN (11757783_s_at) / Fold change /veh VCAN (11757783_s_at) / RFU DDX43 (11728927_at) / Fold change /veh DDX43 (11728927_at) / RFU KRT8 (11758188_x_at) / Fold change /veh KRT8 (11758188_x_at) / RFU NKD1 (11759106_at) / Fold change /veh NKD1 (11759106_at) / RFU SRD5A1 (11742802_a_at) / Fold change /veh SRD5A1 (11742802_a_at) / RFU TPSAB1 /// TPSB2 (11721975_s_at) / Fold change /veh TPSAB1 /// TPSB2 (11721975_s_at) / RFU GSTM3 (11746129_a_at) / Fold change /veh GSTM3 (11746129_a_at) / RFU IL23R (11737362_x_at) / Fold change /veh IL23R (11737362_x_at) / RFU TMEM51 (11727254_a_at) / Fold change /veh TMEM51 (11727254_a_at) / RFU PIWIL2 (11732686_x_at) / Fold change /veh PIWIL2 (11732686_x_at) / RFU ORM1 (11744905_x_at) / Fold change /veh ORM1 (11744905_x_at) / RFU CCDC152 (11743942_at) / Fold change /veh CCDC152 (11743942_at) / RFU ECM1 (11717891_a_at) / Fold change /veh ECM1 (11717891_a_at) / RFU IL23R (11748794_a_at) / Fold change /veh IL23R (11748794_a_at) / RFU TNFAIP8L3 (11732012_x_at) / Fold change /veh TNFAIP8L3 (11732012_x_at) / RFU MBOAT4 (11741988_at) / Fold change /veh MBOAT4 (11741988_at) / RFU 11764193_at / Fold change /veh 11764193_at / RFU TMEM53 (11763286_at) / Fold change /veh TMEM53 (11763286_at) / RFU MAGEB2 (11727129_at) / Fold change /veh MAGEB2 (11727129_at) / RFU TMEM200A (11744735_a_at) / Fold change /veh TMEM200A (11744735_a_at) / RFU CCDC152 (11751479_a_at) / Fold change /veh CCDC152 (11751479_a_at) / RFU FAM211A (11726209_a_at) / Fold change /veh FAM211A (11726209_a_at) / RFU RGS16 (11746705_a_at) / Fold change /veh RGS16 (11746705_a_at) / RFU VCAN (11755009_s_at) / Fold change /veh VCAN (11755009_s_at) / RFU RHOB (11743442_s_at) / Fold change /veh RHOB (11743442_s_at) / RFU RGS16 (11720943_a_at) / Fold change /veh RGS16 (11720943_a_at) / RFU RGS16 (11720944_at) / Fold change /veh RGS16 (11720944_at) / RFU, VPS4B / Fold change vs veh, VPS4B / RFU, CREB1 / Fold change vs veh, CREB1 / RFU, DNAJC13 / Fold change vs veh, DNAJC13 / RFU, GNAQ / Fold change vs veh, GNAQ / RFU, CDK5R1 / Fold change vs veh, CDK5R1 / RFU, ZRANB3 / Fold change vs veh, ZRANB3 / RFU, CUL4A / Fold change vs veh, CUL4A / RFU, CCNY / Fold change vs veh, CCNY / RFU, UFL1 / Fold change vs veh, UFL1 / RFU, COG3 / Fold change vs veh, COG3 / RFU, DIAPH2 / Fold change vs veh, DIAPH2 / RFU, SKA2 / Fold change vs veh, SKA2 / RFU, AFF3 / Fold change vs veh, AFF3 / RFU, LMF1 / Fold change vs veh, LMF1 / RFU, IPO11 / Fold change vs veh, IPO11 / RFU, DFFB / Fold change vs veh, DFFB / RFU, FOXP1 / Fold change vs veh, FOXP1 / RFU, CARD8 / Fold change vs veh, CARD8 / RFU, STRN3 / Fold change vs veh, STRN3 / RFU, ADK / Fold change vs veh, ADK / RFU, RASSF2 / Fold change vs veh, RASSF2 / RFU, WIPF1 / Fold change vs veh, WIPF1 / RFU, LARP1B / Fold change vs veh, LARP1B / RFU, RASA1 / Fold change vs veh, RASA1 / RFU, RB1 / Fold change vs veh, RB1 / RFU, PPFIA1 / Fold change vs veh, PPFIA1 / RFU, MAT2A / Fold change vs veh, MAT2A / RFU, CCT5 / Fold change vs veh, CCT5 / RFU, WDR92 / Fold change vs veh, WDR92 / RFU, CUX1 / Fold change vs veh, CUX1 / RFU, TTC7A / Fold change vs veh, TTC7A / RFU, TMEM135 / Fold change vs veh, TMEM135 / RFU, DEPTOR / Fold change vs veh, DEPTOR / RFU, CPM / Fold change vs veh, CPM / RFU, DNAJB6 / Fold change vs veh, DNAJB6 / RFU, CACNA2D3 / Fold change vs veh, CACNA2D3 / RFU, DTX4 / Fold change vs veh, DTX4 / RFU, TFCP2 / Fold change vs veh, TFCP2 / RFU, GMCL1 /// GMCL1P1 / Fold change vs veh, GMCL1 /// GMCL1P1 / RFU, AEBP2 / Fold change vs veh, AEBP2 / RFU, SNHG1 /// SNORD22 /// SNORD25 /// SNORD26 /// SNORD27 /// SNORD28 /// SNORD29 /// SNORD31 / Fold change vs veh, SNHG1 /// SNORD22 /// SNORD25 /// SNORD26 /// SNORD27 /// SNORD28 /// SNORD29 /// SNORD31 / Fold change (Aza/veh), C12orf56 (ProbeSet 11735607_a_at) / Fold change (ACY-1035/veh), C12orf56 (ProbeSet 11735607_a_at) / Fold change (Aza/veh), FGFR1OP (ProbeSet 11751329_s_at) / Fold change (ACY-1035/veh), FGFR1OP (ProbeSet 11751329_s_at) / Fold change (Aza/veh), VPS36 (ProbeSet 11739960_a_at) / Fold change (ACY-1035/veh), VPS36 (ProbeSet 11739960_a_at) / RFU SYPL1 (11715823_x_at) / Fold change /veh SYPL1 (11715823_x_at) / RFU IGFBP7 (11715501_s_at) / Fold change /veh IGFBP7 (11715501_s_at) / RFU REEP3 (11722064_at) / Fold change /veh REEP3 (11722064_at) / RFU IGLL1 (11728026_x_at) / Fold change /veh IGLL1 (11728026_x_at): dose or concentration left out as unconfirmed
Settings: MV-4-11 cells, 48 hours

Nc1ncn([C@@H]2O[C@H](CO)[C@@H](O)[C@H]2O)c(=O)n1 [azacitidine]
Fold change /veh TMPRSS6 (11731388_a_at): 1.02

Source: article PMC5218480 (PLoS ONE, 2017)
